Converted amounts (≈) assume the structure as drawn. Like-named read-outs stand apart in the source and are kept apart here.
Assays:
[1] = test system: AML-12, normal mouse liver cells; settings: 24 h
[2] = s9, 60 min, 1 μM
physchem [3] = settings: pH 7.4, aqueous buffer, Solubility Dulbecco's PBS pH 7.4
[4] = test system: FDC-P1, normal mouse myelogeous stem cells; settings: 24 h
physchem [5] = settings: pH 7.4, log D n-Octanol-Dulbecco's PBS pH 7.4
[6] = test system: NRK-52E, normal rat kidney cells; settings: 24 h
CYP3A4 = CYP3A4 (Homo sapiens, UniProt P08684); experiment: in vitro; settings: CYP3A4 (% inhibition)
Procedure: For CYP3A4 inhibition assay, the compound were tested at 10 μM in duplicate with a 0.25% final concentration of both methanol and acetonitrile in presence of the fluorescent substrate BFC (50 μM). The conversion of the BFC (7-benzyloxy-4-trifluoromethylcoumarin) in HFC (7-hydroxy-4-trifluoromethylcoumarin) was determined spectro-fluormetry after incubation with the enzyme during 30 min at 37° C.
For both assays, the fluorescent intensity measured at t=0 is subtracted from that measured after the appropriate incubation time. The ratio of signal-to-noise is calculated by comparing the fluorescence in incubations containing the test compound to the control samples containing the same solvent vehicle. The percent of control activity is calculated and reported as percent inhibition.

[7] = test system: H9c2 (2-1), normal rat cardiac muscle cells; settings: 24 h
[8] = test system: L8, normal rat skeletal muscle cells; settings: 24 h
Procedure: In order to assess the cytotoxicity of the drugs to normal cells, we used 96 well plates plated at a density of 5000 cells per well (except for the FDC-P1 which were plated at 12,000 cells per well) with normal cell lines (ATCC, Table 1) maintained as per the directions of the ATCC: AML-12, normal mouse liver cells; NRK-52E, normal rat kidney cells; L8, normal rat skeletal muscle cells; FDC-P1, normal mouse myelogeous stem cells; and H9c2 (2-1), normal rat cardiac muscle cells. The cells in each plate were permitted to settle overnight before adding the test drug.
To each well (100 μl medium) 10 μl of drug in media was added at varying concentrations (1×10-10-0.01 mg/ml final concentration) and further incubated overnight at 37° C. with 5% CO2. After 24 h the following assays were performed. All experiments were repeated at least 3 times and were assayed in duplicate.
MTS assay (CellTiter 96 aqueous) was performed according to the manufacturer's (Promega) directions (for all cell types). Cell viability (mitochondrial activity) is determined via enzymatic conversion of the formazan substrate.

HT29 = experiment: cells; type: cell-based; settings: Homo sapiens, HT-29, 48 h
Summary of the method: (§1)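 Readout: SRB OD490, triplicate wells. Setup: 5×10^3 cells/well, RPMI 1640 + 10% FBS, 37° C, 5% CO2; 18 h pre-attachment; 48 h sample exposure, 10 to 10^−8 μg/ml. Outputs GI, TGI (cytostatic), LC (cytotoxic).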

MB231 = experiment: cells; type: cell-based; settings: Homo sapiens
Summary of the method: as §1

SW-620 = experiment: cells; type: cell-based; settings: Homo sapiens
Summary of the method: as §1

MEL-28 = experiment: cells; type: cell-based; settings: Homo sapiens
Summary of the method: as §1

A549 = experiment: cells; type: cell-based; settings: Homo sapiens, A549, 48 h; for GI50: read-out: GI50; for IC (TGI): read-out: TGI
Summary of the method: as §1

DU145 = experiment: cells; type: cell-based; settings: Homo sapiens
Summary of the method: as §1

MCF = experiment: cells; type: cell-based; settings: Homo sapiens
Summary of the method: as §1

A498 = experiment: cells; type: cell-based; settings: Homo sapiens
Summary of the method: as §1

LNCAP = experiment: cells; type: cell-based; settings: Homo sapiens, 48 hours exposure, SRB
Summary of the method: as §1

SK-BR3 = experiment: cells; type: cell-based; settings: Homo sapiens, SK-BR3, 48 hours exposure, SRB
Summary of the method: as §1

IGROV-ET = experiment: cells; type: cell-based; settings: Homo sapiens, IGROV-ET, 48 hours exposure, SRB
Summary of the method: as §1

LOVO = experiment: cells; type: cell-based; settings: Homo sapiens, 48 hours exposure, SRB
Summary of the method: as §1

HELA-APL = experiment: cells; type: cell-based
Summary of the method: as §1

HELA = experiment: cells; type: cell-based; settings: HELA, 48 hours exposure, SRB
Summary of the method: as §1

PANC-1 = experiment: cells; type: cell-based; settings: Homo sapiens, PANC-1, 48 hours exposure, SRB
Summary of the method: as §1

LOVO-DOX = experiment: cells; type: cell-based; settings: Homo sapiens, LOVO-DOX, 48 hours exposure, SRB
Summary of the method: as §1

K562 = experiment: cells; type: cell-based; settings: Homo sapiens, K562, 48 hours exposure, SRB
Summary of the method: as §1

IGROV = experiment: cells; type: cell-based; settings: Homo sapiens, 48 hours exposure, SRB
Summary of the method: as §1

[9] = SK-MEL-28, 48 h, MEL-28, 48 hours exposure, SRB
[10] = DU-145, 48 h, DU145, 48 hours exposure, SRB
[11] = read-out: LC50 (the source's name)

CYP3A4, sequence (P08684 whole entry): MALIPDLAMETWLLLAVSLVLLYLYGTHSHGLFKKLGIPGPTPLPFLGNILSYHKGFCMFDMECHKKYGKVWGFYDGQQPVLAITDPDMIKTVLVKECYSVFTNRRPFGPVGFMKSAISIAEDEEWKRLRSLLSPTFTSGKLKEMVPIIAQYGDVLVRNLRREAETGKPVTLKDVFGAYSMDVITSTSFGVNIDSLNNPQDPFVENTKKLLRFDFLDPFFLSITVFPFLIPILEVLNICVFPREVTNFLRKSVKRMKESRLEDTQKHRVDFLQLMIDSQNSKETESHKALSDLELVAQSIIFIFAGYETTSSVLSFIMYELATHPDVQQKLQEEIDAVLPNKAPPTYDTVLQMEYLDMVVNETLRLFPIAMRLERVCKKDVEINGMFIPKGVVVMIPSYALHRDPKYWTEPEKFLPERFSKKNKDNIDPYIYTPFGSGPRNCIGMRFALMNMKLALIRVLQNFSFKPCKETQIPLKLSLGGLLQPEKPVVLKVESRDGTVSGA

COc1c(C)cc2c(c1O)[C@@H]1C3[C@@H]4SC[C@]5(NCCc6c5[nH]c5ccc(C)cc65)C(=O)COC[C@@H](c5c6c(c(C)c(OC(C)=O)c54)OCO6)N3[C@@H](O)[C@H](C2)N1C (stereo partly drawn) [Compound 30]
Liver [1]: 2.72E−07
Human Liver S9 Metabolic Stability (% remaining) [2]: 6 % remaining
solubility (physchem [3]): 2.24 µM (≈ 1.75 µg/mL)
Myelo [4]: 7.58E−09
logD at 60 min (physchem [5]): > 4.9
Kidney [6]: 4.19E−09
inhibition at 30 min, 10 µM (CYP3A4): 25%
Heart [7]: 5.06E−07
Skeletal [8]: 2.51E−08
GI50 (HT29; HT29, 48 hours exposure, SRB): 0.104 nM
IC (TGI) (HT29; HT29, 48 hours exposure, SRB): 0.39 nM
CC50 (HT29; read-out: LC50, HT29, 48 hours exposure, SRB): 1.04 nM
CC50 (MB231; 48 h, read-out: LC50): 3.9 nM
GI50 (MB231; MB231, 48 hours exposure, SRB): 0.0026 nM
IC (TGI) (MB231; MB231, 48 hours exposure, SRB, read-out: TGI): 0.13 nM
CC50 (SW-620; SW-620, 48 h, read-out: LC50): 1.3 nM
IC (TGI) (SW-620; SW-620, 48 hours exposure, SRB): 0.39 nM
GI50 (SW-620; SW-620, 48 hours exposure, SRB, read-out: GI50): 0.026 nM
GI50 (MEL-28; [9]): 0.026 nM
IC (TGI) (MEL-28; [9]): 0.13 nM
CC50 (MEL-28; SK-MEL-28, 48 h, read-out: LC50, MEL-28, 48 hours exposure, SRB): 0.65 nM
GI50 (A549; A549, 48 hours exposure, SRB): 0.039 nM
IC (TGI) (A549; A549, 48 hours exposure, SRB): 0.26 nM
CC50 (A549; read-out: LC50, A549, 48 hours exposure, SRB): 1.04 nM
GI50 (DU145; [10]): 0.013 nM
IC (TGI) (DU145; [10]): 0.039 nM
CC50 (DU145; DU-145, 48 h, read-out: LC50, DU145, 48 hours exposure, SRB): 0.13 nM
CC50 (MCF; 48 h, read-out: LC50): 2.6 nM
GI50 (MCF; MCF, 48 hours exposure, SRB): 0.26 nM
IC (TGI) (MCF; MCF, 48 hours exposure, SRB, read-out: TGI): 0.39 nM
CC50 (A498; A498, 48 h, read-out: LC50): 2.6 nM
GI50 (A498; A498, 48 hours exposure, SRB): 0.13 nM
IC (TGI) (A498; A498, 48 hours exposure, SRB): 0.52 nM

C=COC(=O)Oc1c(C)c2c(c3c1[C@H]1SC[C@]4(NCCC5c6ccccc6NC54)C(=O)OC[C@@H]3N3C1[C@H]1c4c(cc(C)c(OC)c4OC(=O)OC=C)C[C@@H]([C@@H]3C#N)N1C)OCO2 (stereo partly drawn) [Compound 68]
GI50 (LNCAP; LNCaP, 48 h): 11.5 nM
IC (TGI) (LNCAP; LNCaP, 48 h): 26.6 nM
CC50 (LNCAP; LNCAP, read-out: LC50 (the source's name)): 61.3 nM
GI50 (SK-BR3; SK-BR-3, 48 h): 29 nM
IC (TGI) (SK-BR3; SK-BR-3, 48 h): 60.9 nM
CC50 (SK-BR3; SK-BR-3, read-out: LC50 (the source's name)): 206 nM
GI50 (IGROV-ET; 48 h): 30.8 nM
IC (TGI) (IGROV-ET; 48 h): 68.9 nM
CC50 (IGROV-ET; [11]): 206 nM
GI50 (HT29; HT29, 48 hours exposure, SRB): 317 nM
IC (TGI) (HT29; HT29, 48 hours exposure, SRB): 95.9 nM
CC50 (HT29; HT29, 48 hours exposure, SRB, read-out: LC50 (the source's name)): 11700 nM
GI50 (LOVO; LoVo, 48 h): 27.1 nM
IC (TGI) (LOVO; LoVo, 48 h): 49.7 nM
CC50 (LOVO; LOVO, read-out: LC50 (the source's name)): 91.3 nM
TGI (HELA-APL; HELA-APL, 48 hours exposure, SRB): 6.19E−08 Molar
GI50 (HELA-APL; Homo sapiens, 48 h): 37 nM
CC50 (HELA-APL; Homo sapiens, HELA-APL, 48 hours exposure, SRB, read-out: LC50 (the source's name)): 103 nM
TGI (HELA): 6.03E−08 Molar
GI50 (HELA; Homo sapiens): 32.5 nM
CC50 (HELA; Homo sapiens, read-out: LC50 (the source's name)): 112 nM
GI50 (MEL-28; [9]): 7.52 nM
IC (TGI) (MEL-28; [9]): 22.4 nM
CC50 (MEL-28; SK-MEL-28, MEL-28, 48 hours exposure, SRB, read-out: LC50 (the source's name)): 67.2 nM
GI50 (A549; A549, 48 hours exposure, SRB): 28.3 nM
CC50 (A549; A549, 48 hours exposure, SRB, read-out: LC50 (the source's name)): 101 nM
IC (TGI) (A549; A549, 48 hours exposure, SRB): 49.5 nM
GI50 (PANC-1; PANC-1, 48 h): 48.1 nM
IC (TGI) (PANC-1; PANC-1, 48 h): 125 nM
CC50 (PANC-1; [11]): 11700 nM
GI50 (LOVO-DOX; 48 h): 112 nM
IC (TGI) (LOVO-DOX; 48 h): 743 nM
CC50 (LOVO-DOX; [11]): 11700 nM
GI50 (K562; K562, 48 h): 20.4 nM
IC (TGI) (K562; K562, 48 h): 44.7 nM
CC50 (K562; [11]): 97.5 nM
GI50 (DU145; [10]): 29.9 nM
IC (TGI) (DU145; [10]): 86.5 nM
CC50 (DU145; DU-145, DU145, 48 hours exposure, SRB, read-out: LC50 (the source's name)): 10300 nM
GI50 (IGROV; 48 h): 21.7 nM
IC (TGI) (IGROV; 48 h): 61.6 nM
CC50 (IGROV; [11]): 1090 nM
